Laboratory results: the kinase profiling compilation of Christmann-Franck et al. (2016)

How the values were obtained:
Assay in all cases: radiometric filter-binding kinase assay, Kinase HotSpot
Details in all cases: compound 0.5 µM; ATP 10 µM
DMPK (human) = DMPK (human) (UniProt Q09013)
MAP3K5 (human) = MAP3K5 (human) (UniProt Q99683)
OXSR1 (human) = OXSR1 (human) (UniProt O95747)
EPHB3 (human) = EPHB3 (human) (UniProt P54753)
CAMK2G (human) = CAMK2G (human) (UniProt Q13555)
DYRK1A (human) = DYRK1A (human) (UniProt Q13627)
EPHA8 (human) = EPHA8 (human) (UniProt P29322)
FGFR3 (human) = FGFR3 (human) (UniProt P22607)
PIM3 (human) = PIM3 (human) (UniProt Q86V86)
GSK3B (human) = GSK3B (human) (UniProt P49841)
PNCK (human) = PNCK (human) (UniProt Q6P2M8)
PLK3 (human) = PLK3 (human) (UniProt Q9H4B4)
RAF1 (human) = RAF1 (human) (UniProt P04049)
ITK (human) = ITK (human) (UniProt Q08881)
SRMS (human) = SRMS (human) (UniProt Q9H3Y6)
MUSK (human) = MUSK (human) (UniProt O15146)
NEK7 (human) = NEK7 (human) (UniProt Q8TDX7)
STK33 (human) = STK33 (human) (UniProt Q9BYT3)
MERTK (human) = MERTK (human) (UniProt Q12866)
CSF1R (human) = CSF1R (human) (UniProt P07333)
JAK3 JH1 JH2 (human) = JAK3 JH1 JH2 (human) (UniProt P52333)
PRKACA (human) = PRKACA (human) (UniProt P17612)
NUAK1 (human) = NUAK1 (human) (UniProt O60285)
PBK (human) = PBK (human) (UniProt Q96KB5)
MAP4K4 (human) = MAP4K4 (human) (UniProt O95819)
BTK (human) = BTK (human) (UniProt Q06187)
MINK1 (human) = MINK1 (human) (UniProt Q8N4C8)
MARK3 (human) = MARK3 (human) (UniProt P27448)
EPHA1 (human) = EPHA1 (human) (UniProt P21709)
NEK3 (human) = NEK3 (human) (UniProt P51956)
STK25 (human) = STK25 (human) (UniProt O00506)
HIPK1 (human) = HIPK1 (human) (UniProt Q86Z02)
CAMK2A (human) = CAMK2A (human) (UniProt Q9UQM7)
CSNK1G1 (human) = CSNK1G1 (human) (UniProt Q9HCP0)
CSNK2A2 (human) = CSNK2A2 (human) (UniProt P19784)
FGFR4 (human) = FGFR4 (human) (UniProt P22455)
DYRK3 (human) = DYRK3 (human) (UniProt O43781)
PIM1 (human) = PIM1 (human) (UniProt P11309)
ULK1 (human) = ULK1 (human) (UniProt O75385)
WEE1 (human) = WEE1 (human) (UniProt P30291)
CSNK1G2 (human) = CSNK1G2 (human) (UniProt P78368)
MYLK2 (human) = MYLK2 (human) (UniProt Q9H1R3)

EPHA1 (human), sequence (P21709 whole entry, looked up): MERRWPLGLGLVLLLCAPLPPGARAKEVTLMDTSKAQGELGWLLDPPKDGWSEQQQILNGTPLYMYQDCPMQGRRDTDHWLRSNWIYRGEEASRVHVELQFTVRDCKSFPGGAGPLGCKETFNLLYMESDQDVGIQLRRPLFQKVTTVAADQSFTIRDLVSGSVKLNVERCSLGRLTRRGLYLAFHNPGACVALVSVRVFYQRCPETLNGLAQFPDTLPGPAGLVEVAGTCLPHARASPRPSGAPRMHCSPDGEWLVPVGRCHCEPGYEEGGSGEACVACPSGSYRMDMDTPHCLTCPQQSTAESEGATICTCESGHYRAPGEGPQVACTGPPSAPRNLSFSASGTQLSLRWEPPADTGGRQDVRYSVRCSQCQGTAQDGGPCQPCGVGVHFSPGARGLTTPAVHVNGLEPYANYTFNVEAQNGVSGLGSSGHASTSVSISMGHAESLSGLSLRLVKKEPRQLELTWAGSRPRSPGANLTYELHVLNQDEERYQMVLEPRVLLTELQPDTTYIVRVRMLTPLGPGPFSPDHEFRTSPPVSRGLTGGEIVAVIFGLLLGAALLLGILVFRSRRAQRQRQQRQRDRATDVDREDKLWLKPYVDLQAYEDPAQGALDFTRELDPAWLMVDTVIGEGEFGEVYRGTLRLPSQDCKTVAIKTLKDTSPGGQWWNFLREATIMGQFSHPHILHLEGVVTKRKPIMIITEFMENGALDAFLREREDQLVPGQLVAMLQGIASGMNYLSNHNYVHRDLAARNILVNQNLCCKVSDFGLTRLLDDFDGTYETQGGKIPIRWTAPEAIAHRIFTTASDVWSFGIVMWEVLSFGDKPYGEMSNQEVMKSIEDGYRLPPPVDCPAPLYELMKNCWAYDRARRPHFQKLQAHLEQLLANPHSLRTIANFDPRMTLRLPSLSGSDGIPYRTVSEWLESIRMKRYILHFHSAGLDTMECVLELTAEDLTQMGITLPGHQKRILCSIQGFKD
GSK3B (human), sequence (P49841 whole entry, looked up): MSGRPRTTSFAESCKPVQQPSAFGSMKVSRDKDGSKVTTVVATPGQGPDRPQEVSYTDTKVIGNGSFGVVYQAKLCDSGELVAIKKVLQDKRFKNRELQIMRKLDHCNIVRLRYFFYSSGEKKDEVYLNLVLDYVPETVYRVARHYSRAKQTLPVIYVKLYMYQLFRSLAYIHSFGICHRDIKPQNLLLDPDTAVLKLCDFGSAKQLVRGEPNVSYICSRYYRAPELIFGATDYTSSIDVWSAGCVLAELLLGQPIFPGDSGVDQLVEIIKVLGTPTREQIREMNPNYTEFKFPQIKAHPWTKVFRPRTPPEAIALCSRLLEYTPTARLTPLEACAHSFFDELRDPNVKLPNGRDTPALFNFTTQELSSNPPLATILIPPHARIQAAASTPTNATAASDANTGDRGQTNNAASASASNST
NEK3 (human), sequence (P51956 whole entry, looked up): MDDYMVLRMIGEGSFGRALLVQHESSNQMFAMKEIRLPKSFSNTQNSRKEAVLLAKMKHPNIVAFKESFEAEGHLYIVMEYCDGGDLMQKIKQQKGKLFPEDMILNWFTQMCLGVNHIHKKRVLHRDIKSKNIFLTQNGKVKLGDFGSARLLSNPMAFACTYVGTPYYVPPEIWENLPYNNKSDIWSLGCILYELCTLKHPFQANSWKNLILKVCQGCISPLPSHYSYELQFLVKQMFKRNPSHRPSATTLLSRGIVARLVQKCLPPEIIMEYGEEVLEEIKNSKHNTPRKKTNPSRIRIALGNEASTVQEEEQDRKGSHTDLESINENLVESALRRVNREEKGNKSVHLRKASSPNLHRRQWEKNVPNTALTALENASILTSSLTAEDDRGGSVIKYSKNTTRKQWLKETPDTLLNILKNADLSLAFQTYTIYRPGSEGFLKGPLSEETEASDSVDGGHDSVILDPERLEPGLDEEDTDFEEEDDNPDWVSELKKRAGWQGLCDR
OXSR1 (human), sequence (O95747 whole entry, looked up): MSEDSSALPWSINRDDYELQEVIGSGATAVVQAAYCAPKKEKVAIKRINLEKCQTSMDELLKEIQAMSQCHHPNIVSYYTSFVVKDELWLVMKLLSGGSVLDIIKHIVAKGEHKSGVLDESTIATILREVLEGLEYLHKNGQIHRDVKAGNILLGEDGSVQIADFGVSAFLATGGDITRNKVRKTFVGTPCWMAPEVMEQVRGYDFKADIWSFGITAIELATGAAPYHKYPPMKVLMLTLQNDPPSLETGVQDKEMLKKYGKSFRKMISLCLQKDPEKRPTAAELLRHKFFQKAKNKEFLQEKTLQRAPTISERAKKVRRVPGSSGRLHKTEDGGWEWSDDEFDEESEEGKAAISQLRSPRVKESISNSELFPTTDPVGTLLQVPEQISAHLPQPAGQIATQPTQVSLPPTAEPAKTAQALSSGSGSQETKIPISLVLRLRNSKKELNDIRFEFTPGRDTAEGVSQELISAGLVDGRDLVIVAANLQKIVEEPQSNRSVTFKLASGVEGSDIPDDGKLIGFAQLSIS
DYRK3 (human), sequence (O43781 whole entry, looked up): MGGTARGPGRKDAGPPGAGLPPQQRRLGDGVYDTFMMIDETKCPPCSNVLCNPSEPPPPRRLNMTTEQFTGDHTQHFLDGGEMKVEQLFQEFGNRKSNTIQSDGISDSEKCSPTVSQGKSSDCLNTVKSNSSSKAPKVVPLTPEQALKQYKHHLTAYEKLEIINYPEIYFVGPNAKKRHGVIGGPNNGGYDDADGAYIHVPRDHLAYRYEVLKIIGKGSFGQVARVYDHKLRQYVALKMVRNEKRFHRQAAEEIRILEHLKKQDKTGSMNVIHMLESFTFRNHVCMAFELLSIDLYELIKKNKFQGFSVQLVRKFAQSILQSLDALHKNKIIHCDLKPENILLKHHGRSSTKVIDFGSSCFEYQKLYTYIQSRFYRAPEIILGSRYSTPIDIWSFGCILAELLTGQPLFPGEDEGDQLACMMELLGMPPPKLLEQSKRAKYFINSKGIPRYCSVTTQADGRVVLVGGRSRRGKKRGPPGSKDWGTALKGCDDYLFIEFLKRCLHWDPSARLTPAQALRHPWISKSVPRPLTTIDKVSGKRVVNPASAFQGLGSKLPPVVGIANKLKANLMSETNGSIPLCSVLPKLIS
EPHA8 (human), sequence (P29322 whole entry, looked up): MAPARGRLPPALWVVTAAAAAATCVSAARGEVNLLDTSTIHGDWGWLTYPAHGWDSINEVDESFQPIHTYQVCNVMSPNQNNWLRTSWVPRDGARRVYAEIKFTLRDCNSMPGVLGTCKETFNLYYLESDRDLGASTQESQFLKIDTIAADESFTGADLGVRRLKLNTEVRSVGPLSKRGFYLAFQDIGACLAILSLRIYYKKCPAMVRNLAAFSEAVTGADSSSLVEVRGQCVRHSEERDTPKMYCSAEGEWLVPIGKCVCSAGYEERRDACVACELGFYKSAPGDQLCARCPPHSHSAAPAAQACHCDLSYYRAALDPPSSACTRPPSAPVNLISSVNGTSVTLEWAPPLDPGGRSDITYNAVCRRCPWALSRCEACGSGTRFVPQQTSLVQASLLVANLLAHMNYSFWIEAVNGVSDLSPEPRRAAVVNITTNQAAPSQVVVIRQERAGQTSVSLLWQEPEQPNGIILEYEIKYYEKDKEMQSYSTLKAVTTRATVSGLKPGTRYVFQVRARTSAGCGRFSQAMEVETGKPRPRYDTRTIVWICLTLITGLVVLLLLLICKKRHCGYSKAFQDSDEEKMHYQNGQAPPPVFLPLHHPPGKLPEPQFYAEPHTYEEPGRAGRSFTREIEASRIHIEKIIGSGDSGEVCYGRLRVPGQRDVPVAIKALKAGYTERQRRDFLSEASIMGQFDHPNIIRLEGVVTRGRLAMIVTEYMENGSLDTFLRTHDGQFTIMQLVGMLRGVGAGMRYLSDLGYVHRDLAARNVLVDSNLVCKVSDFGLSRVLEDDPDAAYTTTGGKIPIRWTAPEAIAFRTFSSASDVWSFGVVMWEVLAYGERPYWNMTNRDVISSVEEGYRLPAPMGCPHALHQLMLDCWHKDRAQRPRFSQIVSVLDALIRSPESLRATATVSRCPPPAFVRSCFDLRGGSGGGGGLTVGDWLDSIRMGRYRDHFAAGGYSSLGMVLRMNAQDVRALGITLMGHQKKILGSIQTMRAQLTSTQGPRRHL
RAF1 (human), sequence (P04049 whole entry, looked up): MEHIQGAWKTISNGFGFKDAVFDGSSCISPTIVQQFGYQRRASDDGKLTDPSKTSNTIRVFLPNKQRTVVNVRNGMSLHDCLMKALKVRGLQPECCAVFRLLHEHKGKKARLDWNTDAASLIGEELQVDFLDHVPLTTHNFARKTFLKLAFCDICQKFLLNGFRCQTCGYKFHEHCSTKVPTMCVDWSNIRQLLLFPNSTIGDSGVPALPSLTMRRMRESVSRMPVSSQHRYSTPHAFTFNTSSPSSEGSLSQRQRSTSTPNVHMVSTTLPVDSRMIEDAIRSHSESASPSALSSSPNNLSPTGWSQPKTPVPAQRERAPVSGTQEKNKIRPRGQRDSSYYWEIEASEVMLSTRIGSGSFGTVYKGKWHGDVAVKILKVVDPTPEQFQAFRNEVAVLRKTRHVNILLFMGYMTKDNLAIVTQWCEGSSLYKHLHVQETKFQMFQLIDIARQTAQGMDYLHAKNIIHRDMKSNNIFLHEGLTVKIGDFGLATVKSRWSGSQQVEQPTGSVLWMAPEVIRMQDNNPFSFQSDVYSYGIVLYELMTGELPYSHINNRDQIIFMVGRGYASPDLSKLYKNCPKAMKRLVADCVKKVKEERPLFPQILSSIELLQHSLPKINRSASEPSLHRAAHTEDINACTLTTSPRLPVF
PBK (human), sequence (Q96KB5 whole entry, looked up): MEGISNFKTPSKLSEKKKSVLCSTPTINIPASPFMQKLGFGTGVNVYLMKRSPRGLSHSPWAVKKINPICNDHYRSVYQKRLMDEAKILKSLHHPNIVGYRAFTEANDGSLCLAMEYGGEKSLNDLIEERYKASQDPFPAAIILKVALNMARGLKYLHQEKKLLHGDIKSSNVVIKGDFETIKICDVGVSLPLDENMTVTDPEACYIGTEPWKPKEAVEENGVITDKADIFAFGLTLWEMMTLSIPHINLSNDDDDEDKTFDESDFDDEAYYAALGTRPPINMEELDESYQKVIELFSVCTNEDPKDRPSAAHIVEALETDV

Work on `COc1cc2ncnc(N3CCN(C(=O)Nc4ccc(Oc5ccccc5)cc4)CC3)c2cc1OC` yielded a residual activity (DMPK (human)) of 95.6%, a residual activity (MAP3K5 (human)) of 102% and a residual activity (OXSR1 (human)) of 119%. For the same compound, the residual activity (EPHB3 (human)) was 89.6%, the residual activity (CAMK2G (human)) was 100% and the residual activity (DYRK1A (human)) was 97.9%. The residual activity (EPHA8 (human)) was 92.5%, the residual activity (FGFR3 (human)) was 99.9% and the residual activity (PIM3 (human)) was 94.4%. The residual activity (GSK3B (human)) was 99%, the residual activity (PNCK (human)) was 94.3% and the residual activity (PLK3 (human)) was 91.8%. The residual activity (RAF1 (human)) was 88%, the residual activity (ITK (human)) was 88.1% and the residual activity (SRMS (human)) was 93.6%. For the same compound, the residual activity (MUSK (human)) was 87.4%, the residual activity (NEK7 (human)) was 105% and the residual activity (STK33 (human)) was 94.7%. The residual activity (MERTK (human)) was 60%, the residual activity (CSF1R (human)) was 67.2% and the residual activity (JAK3 JH1 JH2 (human)) was 107%. The residual activity (PRKACA (human)) was 96%, the residual activity (NUAK1 (human)) was 88.8% and the residual activity (PBK (human)) was 85.8%. It also gave a residual activity (MAP4K4 (human)) of 88.4%, a residual activity (BTK (human)) of 87.8% and a residual activity (MINK1 (human)) of 99.6%. The residual activity (MARK3 (human)) was 80.4%, the residual activity (EPHA1 (human)) was 102% and the residual activity (NEK3 (human)) was 100%. The residual activity (STK25 (human)) was 100%, the residual activity (HIPK1 (human)) was 96.9% and the residual activity (CAMK2A (human)) was 89.9%. It also gave a residual activity (CSNK1G1 (human)) of 81.6%, a residual activity (CSNK2A2 (human)) of 61.9% and a residual activity (FGFR4 (human)) of 99.7%. For the same compound, the residual activity (DYRK3 (human)) was 86.3%, the residual activity (PIM1 (human)) was 102% and the residual activity (ULK1 (human)) was 110%. It also gave a residual activity (WEE1 (human)) of 97.5%, a residual activity (CSNK1G2 (human)) of 94.6% and a residual activity (MYLK2 (human)) of 94.6%.
Compound `COc1ccc(OC)c2c(=S)c3ccccc3[nH]c12` has a residual activity (DMPK (human)) of 99.6%, a residual activity (MAP3K5 (human)) of 115% and a residual activity (OXSR1 (human)) of 90.6%. For the same compound, the residual activity (EPHB3 (human)) was 91%, the residual activity (CAMK2G (human)) was 95.8% and the residual activity (DYRK1A (human)) was 103%. The residual activity (EPHA8 (human)) was 93.8%, the residual activity (FGFR3 (human)) was 94.9% and the residual activity (PIM3 (human)) was 93.1%. It also gave a residual activity (GSK3B (human)) of 61.3%, a residual activity (PNCK (human)) of 97.3% and a residual activity (PLK3 (human)) of 99.8%. The residual activity (RAF1 (human)) was 88.2%, the residual activity (ITK (human)) was 101% and the residual activity (SRMS (human)) was 83.5%. For the same compound, the residual activity (MUSK (human)) was 87.3%, the residual activity (NEK7 (human)) was 97.2% and the residual activity (STK33 (human)) was 98.4%. For the same compound, the residual activity (MERTK (human)) was 86.7%, the residual activity (CSF1R (human)) was 93.4% and the residual activity (JAK3 JH1 JH2 (human)) was 96.7%. It also gave a residual activity (PRKACA (human)) of 97.5%, a residual activity (NUAK1 (human)) of 99.3% and a residual activity (PBK (human)) of 107%. It also gave a residual activity (MAP4K4 (human)) of 101%, a residual activity (BTK (human)) of 102% and a residual activity (MINK1 (human)) of 95.9%. The residual activity (MARK3 (human)) was 96.7%, the residual activity (EPHA1 (human)) was 89% and the residual activity (NEK3 (human)) was 107%. It also gave a residual activity (STK25 (human)) of 96.2%, a residual activity (HIPK1 (human)) of 107% and a residual activity (CAMK2A (human)) of 100%. For the same compound, the residual activity (CSNK1G1 (human)) was 120%, the residual activity (CSNK2A2 (human)) was 87.1% and the residual activity (FGFR4 (human)) was 91.1%. The residual activity (DYRK3 (human)) was 98.2%, the residual activity (PIM1 (human)) was 93% and the residual activity (ULK1 (human)) was 114%. It also gave a residual activity (WEE1 (human)) of 102%, a residual activity (CSNK1G2 (human)) of 103% and a residual activity (MYLK2 (human)) of 95.7%.
